Measurements taken from patent US20210246208A1, “COMBINED INHIBITION OF PD-1/PD-L1, TGFB AND DNA-PK FOR THE TREATMENT OF CANCER” (MERCK PATENT GMBH, priority 2018, published 2021).

Legend:
MC38 tumors = assay: M3814 and avelumab in murine colon tumor model MC38 (Example 1); format: in vivo, C57BL6/N mice; conditions: M3814 150 mg/kg orally once daily, avelumab 400 μg/mouse i.v. days 3, 6, 9; for median time the tumors needed to double in size compared to initial volume at day 0: MC38 in C57BL6/N mice, Kaplan-Meyer evaluation; for T/C value: calculated at day 13
Description: M3814 was applied daily started from day 0; Avelumab was applied on days 3, 6 and 9.
This model allows the use of immunocompetent mice, a necessary requirement to study the T-cell mediated antitumor effect of Avelumab. The experimental set up included the induction of MC38 tumors in C57BL6/N mice by injection of 1×10^6 tumor cells into the right flank of the animals. Tumor growth was followed over time by measuring length and width using a caliper. When tumors were established to an average size of 50-100 mm^3, mice were subdivided in 4 treatment groups with 10 animals each, and treatment started. This day was defined as day 0. Group 1 received vehicle treatment. Group 2 received M3814 orally once daily at 150 mg/kg in a volume of 10 ml/kg. Group 3 received avelumab intravenously once daily at 400 μg/mouse in a volume of 5 ml/kg on days 3, 6 and 9. Group 4 received M3814 orally once daily at 150 mg/kg in a volume of 10 ml/kg and avelumab intravenously once daily at 400 μg/mouse in a volume of 5 ml/kg on days 3, 6 and 9.

[1] = tested on: EMT, fibrosis and VEGF pathway gene signatures in 4T1 tumor tissue; assay: RNAseq gene signatures of 4T1 tumor tissue (Example 3G); format: in vivo, BALB/c mice; conditions: tumors harvested day 6
Experimental: Tumor tissues were harvested at Day 6 for RNAseq analysis. Gene expression signatures associated with (A) EMT, (B) fibrosis, and (C) VEGF pathway signatures are presented as box plots. Signature scores are defined as the mean log2 (fold change) among all genes in the signature.
RNAseq was performed with Qiagen targeted RNAseq panels consisting of 1278 total genes. EMT and fibrosis gene signatures were based on Qiagen gene lists and the VEGF pathway signature was based on the Biocarta VEGF pathway in Broad's Canonical Pathways. For these gene sets, signature scores are defined as the mean log2 (fold-change) among all genes in each gene signature. These were calculated by adding a pseudocount of 0.5 TPM to all genes and samples, determining the log2 (TPM), then subtracting the median log 2-TPM for each gene across all samples from the log2-TPM for each gene. Signature scores for gene sets are shown as boxplots.

DNA-PK = DNA-PK (Homo sapiens, UniProt P78527); assay: Crystallographic and enzyme kinetics studies on DNA-PK; format: biochemical
Description: DNA-PK, together with five additional protein factors (Ku70, Ku80, XRCC4, Ligase IV and Artemis) plays a critical role in the repair of DSB via NHEJ. Kinase activity of DNA-PK is essential for proper and timely DNA repair and the long-term survival of cancer cells.

4T1 mammary tumors = assay: 4T1 mammary tumor model, tumor volume and survival (Example 3A); conditions: concurrent dosing; day 10; Trap 492 μg day 0, 2, 4; radiation 8 Gy day 0-3; M3814 150 mg/kg p.o. q.d. day 0-14
Experimental: BALB/c mice were inoculated intramuscularly (i.m.) with 0.5×10^5 4T1 cells (day −6) and treated (n=10 mice/group) with (A-C) isotype control (400 μg i.v.; day 0, 2, 4)+vehicle control (0.2 mL, orally [per os; p.o.], once daily [quaque die; q.d.], day 0-14), M7824 (492 μg i.v.; day 0, 2, 4), radiation (8 Gy, day 0-3), M3814 (150 mg/kg, p.o, q.d., day 0-14), M7824+RT, M7824+M3814, RT+M3814, or M7824+RT+M3814; or (D-F) isotype control (400 μg i.v.; day 4, 6, 8)+vehicle control (0.2 mL, (p.o.), (q.d.), day 0-14), M7824 (492 μg i.v.; day 4, 6, 8), radiation (8 Gy, day 0-3), M3814 (150 mg/kg, p.o, q.d., day 0-14), M7824+RT, M7824+M3814, RT+M3814, or M7824+RT+M3814. A-B, D-E, Tumor volumes were measured twice weekly and presented as (A, D) mean±SEM or (B, E) individual tumor volumes. P-values were calculated by two-way RM ANOVA with Tukey's post-test. C, F, For survival analysis, mice were sacrificed when tumor volumes reached ≈2000 mm^3 and median survival times were calculated.
For efficacy and survival studies, 4T1 cells, 0.5×10^5, were inoculated intramuscularly (i.m.) in the thigh of BALB/c mice on day −6. […]
Tumor sizes for the 4T1 and MC38 models were measured twice per week with digital calipers and recorded automatically using WinWedge software. Tumor volumes were calculated with the following formula: tumor volume (mm^3)=tumor length×width×height×0.5236. […]

[2] = 10 mg/kg dose; cited from earlier work

| Compound | median time the tumors needed to double in size compared to initial volume at day 0 (MC38 tumors) [days] | T/C value (MC38 tumors) [%] | EMT signature score [1] | fibrosis signature score [1] | inhibition of DNA-PK (DNA-PK) | tumor volume (4T1 mammary tumors) | pharmacokinetics profile [2] | receptor occupancy [2] | tolerability [2] |
| --- | --- | --- | --- | --- | --- | --- | --- | --- | --- |
| COc1ccc([C@@H](O)c2cc(-c3ncnc4cc(N5CCOCC5)ccc34)c(F)cc2Cl)nn1 [Compound M3814, (S)-[2-chloro-4-fluoro-5-(7-morpholin-4-yl-quinazolin-4-yl)-phenyl]-(6-methoxypyridazin-3-yl)-methanol] | 10 | 47 | no effect on the EMT signature | significantly decreased the score | potent and selective ATP-competitive inhibitor of DNA-PK | did not significantly affect tumor growth | – | – | – |
| avelumab: fully human monoclonal antibody of the immunoglobulin (Ig) G1 isotype that selectively binds to PD-L1 | 13 | 60 | – | – | – | – | predictable pharmacokinetics profile | excellent receptor occupancy | well tolerated |
